Measured values taken from PubChem BioAssay (NCI).
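Compound exposure: 48 hours, 5 concentrations, 96-well plates. GI50: concentration for 50% inhibition of growth. TGI marks complete inhibition of growth.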

Key:
Assay in all cases: growth of human tumour cells (NCI), 48 h
[1] = system: M14 melanoma
[2] = system: NCI-H460 lung
[3] = system: T-47D breast
[4] = system: MALME-3M melanoma
[5] = system: RXF 393 renal
[6] = system: BT-549 breast
[7] = system: SN12C renal
[8] = system: OVCAR-4 ovarian
[9] = system: NCI-H226 lung
[10] = system: UACC-62 melanoma
[11] = system: A498 renal
[12] = system: SW-620 colon
[13] = system: KM12 colon
[14] = system: NCI-H23 lung
[15] = system: OVCAR-8 ovarian
[16] = system: ACHN renal
[17] = system: EKVX NSCLC
[18] = system: MDA-MB-231 breast
[19] = system: HCT-116 colon
[20] = system: SK-MEL-28 melanoma
[21] = system: HL-60(TB) leukemia
[22] = system: DU-145 prostate
[23] = system: RPMI-8226 leukemia
[24] = system: U251 CNS
[25] = system: SK-MEL-2 melanoma
[26] = system: SR leukemia
[27] = system: CAKI-1 renal
[28] = system: SNB-19 CNS
[29] = system: MDA-MB-435
[30] = system: TK-10 renal
[31] = system: NCI-H522 lung
[32] = system: UO-31 renal
[33] = system: OVCAR-3 ovarian
[34] = system: HT29 colon
[35] = system: SF-268 CNS
[36] = system: HS 578T breast
[37] = system: 786-0 renal
[38] = system: COLO 205 colon
[39] = system: UACC-257 melanoma
[40] = system: HOP-62 NSCLC
[41] = system: SF-295 CNS
[42] = system: SNB-75 CNS
[43] = system: HCC-2998 colon
[44] = system: NCI/ADR-RES ovarian
[45] = system: SK-OV-3 ovarian
[46] = system: SK-MEL-5 melanoma
[47] = system: HCT-15 colon
[48] = system: SF-539 CNS
[49] = system: IGROV1 ovarian
[50] = system: PC-3 prostate
[51] = system: K-562 leukemia
[52] = system: HOP-92 NSCLC
[53] = system: MOLT-4 leukemia
[54] = system: OVCAR-5 ovarian
[55] = system: A549 NSCLC
[56] = system: MCF7 breast
[57] = system: CCRF-CEM leukemia
[58] = system: LOX IMVI melanoma

C#Cc1cc(OC)c(C(=O)Nc2ccc(F)cc2C(=O)Nc2cccc(S(=O)(=O)C(F)(F)F)c2)cn1
GI50 [1]: 1270 nM | TGI [1]: > 28.4 µM | GI50 [2]: 419 nM | TGI [2]: 1690 nM | GI50 [3]: 1730 nM | TGI [3]: 4.3 µM | GI50 [4]: 43.3 nM | TGI [4]: 130 nM | GI50 [5]: 337 nM | TGI [5]: 1190 nM | GI50 [6]: 500 nM | TGI [6]: 1.85 µM | GI50 [7]: 542 nM | TGI [7]: > 36.7 µM | GI50 [8]: 1.98 µM | TGI [8]: > 26.6 µM | GI50 [9]: 1720 nM | TGI [9]: 8.9 µM | GI50 [10]: 778 nM | TGI [10]: 2310 nM | GI50 [11]: 250 nM | TGI [11]: 656 nM | GI50 [12]: 1130 nM | TGI [12]: 3.42 µM | GI50 [13]: 299 nM | TGI [13]: 1540 nM | GI50 [14]: 101 nM | TGI [14]: 559 nM | GI50 [15]: 389 nM | TGI [15]: 4.43 µM | GI50 [16]: 205 nM | TGI [16]: 1670 nM | GI50 [17]: 290 nM | TGI [17]: 1100 nM | GI50 [18]: 117 nM | TGI [18]: 596 nM | GI50 [19]: 417 nM | TGI [19]: > 100 µM | GI50 [20]: 2840 nM | TGI [20]: > 25.8 µM | GI50 [21]: 28.9 nM | TGI [21]: 84.5 nM | GI50 [22]: 3250 nM | TGI [22]: > 100 µM | GI50 [23]: 174 nM | TGI [23]: 550 nM | GI50 [24]: 280 nM | TGI [24]: 840 nM | GI50 [25]: 2870 nM | TGI [25]: 10.6 µM | GI50 [26]: 21.6 nM | TGI [26]: 68.9 nM | GI50 [27]: 149 nM | TGI [27]: 884 nM | GI50 [28]: 1590 nM | TGI [28]: 3.55 µM | GI50 [29]: 1750 nM | TGI [29]: > 23800 nM | GI50 [30]: 5.86 µM | TGI [30]: > 100 µM | GI50 [31]: 60.6 nM | TGI [31]: 237 nM | GI50 [32]: 17.5 nM | TGI [32]: 44.9 nM | GI50 [33]: 224 nM | TGI [33]: 576 nM | GI50 [34]: 447 nM | TGI [34]: 2500 nM | GI50 [35]: 285 nM | TGI [35]: 927 nM | GI50 [36]: 525 nM | TGI [36]: 3.14 µM | GI50 [37]: 24.1 nM | TGI [37]: 63.3 nM | GI50 [38]: 1680 nM | TGI [38]: > 42700 nM | GI50 [39]: 3.03 µM | TGI [39]: > 83.6 µM | GI50 [40]: 38.1 nM | TGI [40]: 212 nM | GI50 [41]: 176 nM | TGI [41]: 333 nM | GI50 [42]: 190 nM | TGI [42]: 529 nM | GI50 [43]: 2100 nM | TGI [43]: 4.64 µM | GI50 [44]: 52.1 nM | TGI [44]: 340 nM | GI50 [45]: 205 nM | TGI [45]: 412 nM | GI50 [46]: 1240 nM | TGI [46]: 2.88 µM | GI50 [47]: 629 nM | TGI [47]: 2680 nM | GI50 [48]: 99.9 nM | TGI [48]: 252 nM | GI50 [49]: 20.8 nM | TGI [49]: 51.2 nM | GI50 [50]: 1520 nM | TGI [50]: 14.5 µM | GI50 [51]: 666 nM | TGI [51]: > 100 µM | GI50 [52]: 20.1 nM | TGI [52]: 53.9 nM | GI50 [53]: 322 nM | TGI [53]: 1350 nM | GI50 [54]: 269 nM | TGI [54]: 1800 nM | GI50 [55]: 1060 nM | TGI [55]: 5.2 µM | GI50 [56]: 727 nM | TGI [56]: > 100 µM

CCN1C(=O)N(CC)C2C1NN=C1SC(c3ccccc3)=CC(=O)N12 (configuration not stated)
GI50 [57]: 428 nM | TGI [57]: > 100 µM | GI50 [1]: 344 nM | TGI [1]: > 100 µM | GI50 [2]: 394 nM | TGI [2]: > 36900 nM | GI50 [3]: 286 nM | TGI [3]: > 100 µM | GI50 [4]: 492 nM | TGI [4]: > 100000 nM | GI50 [5]: 198 nM | TGI [5]: 538 nM | GI50 [6]: 330 nM | TGI [6]: 25.1 µM | GI50 [7]: 596 nM | TGI [7]: > 100 µM | GI50 [8]: 15.7 µM | TGI [8]: > 100 µM | GI50 [9]: 561 nM | TGI [9]: > 72 µM | GI50 [10]: 343 nM | TGI [10]: > 100000 nM | GI50 [11]: > 100000 nM | TGI [11]: > 100000 nM | GI50 [12]: 349 nM | TGI [12]: > 100 µM | GI50 [13]: 344 nM | TGI [13]: > 85600 nM | GI50 [14]: 1220 nM | TGI [14]: > 100000 nM | GI50 [15]: 1470 nM | TGI [15]: > 20.4 µM | GI50 [16]: 660 nM | TGI [16]: > 100000 nM | TGI [17]: > 100000 nM | GI50 [18]: 2450 nM | TGI [18]: > 100000 nM | GI50 [19]: 388 nM | TGI [19]: > 100 µM | GI50 [20]: 872 nM | TGI [20]: > 100 µM | GI50 [21]: 308 nM | GI50 [22]: 717 nM | TGI [22]: > 100 µM | GI50 [23]: 580 nM | TGI [23]: > 54300 nM | GI50 [24]: 546 nM | TGI [24]: > 100000 nM | GI50 [25]: 481 nM | TGI [25]: > 100 µM | GI50 [26]: 140 nM | TGI [26]: > 100000 nM | GI50 [58]: 562 nM | TGI [58]: > 100 µM | GI50 [27]: 357 nM | TGI [27]: > 100000 nM | GI50 [28]: 730 nM | TGI [28]: > 100 µM | GI50 [29]: 42.9 nM | TGI [29]: 176 nM | GI50 [30]: 53.5 µM | TGI [30]: > 100 µM | GI50 [31]: 228 nM | TGI [31]: 772 nM | GI50 [32]: 605 nM | TGI [32]: > 100000 nM | GI50 [33]: 320 nM | TGI [33]: 1590 nM | GI50 [34]: 338 nM | GI50 [35]: 3050 nM | TGI [35]: > 100000 nM | GI50 [36]: 489 nM | TGI [36]: > 100 µM | GI50 [37]: 472 nM | TGI [37]: > 100000 nM | GI50 [38]: 429 nM | TGI [38]: 2200 nM | GI50 [40]: 532 nM | TGI [40]: > 100000 nM | GI50 [41]: 389 nM | TGI [41]: > 24900 nM | GI50 [42]: 210 nM | GI50 [43]: 1540 nM | TGI [43]: > 28.2 µM | GI50 [44]: 385 nM | TGI [44]: > 100000 nM | GI50 [45]: 545 nM | TGI [45]: > 56100 nM | GI50 [46]: 493 nM | TGI [46]: 41.8 µM | GI50 [47]: 313 nM | TGI [47]: > 74900 nM | GI50 [48]: 375 nM | TGI [48]: 3030 nM | GI50 [49]: 1090 nM | TGI [49]: > 100000 nM | GI50 [50]: 515 nM | TGI [50]: > 100 µM | GI50 [51]: 258 nM | TGI [51]: > 100 µM | GI50 [52]: > 36300 nM | TGI [52]: > 100000 nM | GI50 [53]: 809 nM | TGI [53]: > 100000 nM | GI50 [54]: 921 nM | TGI [54]: > 100000 nM | GI50 [55]: 1020 nM | TGI [55]: > 100 µM | GI50 [56]: 277 nM | TGI [56]: > 100 µM
